73 compounds from patent US10940139B2, “Compounds that interact with the Ras superfamily for the treatment of cancers, inflammatory diseases, rasopathies, and fibrotic disease” (Shy Therapeutics LLC, priority 2017, dated 2021) can be followed below.

As a reminder, the IC50 is the point on the concentration scale where inhibition reaches its midpoint. As a reminder, the inhibition is the change of the read-out against control, counted positive when it falls. A low value points to a weak effect.

One test deals with MAPK phosphorylation in PANC-1 pancreatic cancer cell line. Put plainly: MAPK cell-based phosphorylation assay (cell-direct ELISA, EGF stimulation). To be noted: Homo sapiens. Summed up: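 Cell-direct ELISA measured phospho-MAPK, with fluorescence read at 595 nm from AmpliFlu Red. Before fixation, PANC-1 cells starved overnight received 6 hours of compound (30 μM single dose or serial dilutions, 0.3% DMSO, 37° C), followed by 1.5 ng/ml EGF for 15 min.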
In general terms: In an ELISA, binding on a coated surface is turned into a signal by an enzyme label.
Compound `Oc1nc(-c2ccccn2)nc2scc(Br)c12` [drawing 1080] returned an IC50 of 2 to 10 µM.
The same measure, in the same setting: then `Oc1nc(-c2ccccn2)nc2c(-c3cccc(C(F)(F)F)c3)csc12` [drawing 1212], with below 2 µM; and `Oc1nc(-c2ccccn2)nc2c(-c3cc(Cl)cc(Cl)c3)csc12` [drawing 1192], with above 30 µM.
In turn, `Oc1nc(-c2ccccn2)nc2c(Br)csc12` [drawing 1064] showed an IC50 of 2 to 10 µM.
In turn, `COc1ccnc(-c2nc(O)c3ccsc3n2)c1` [drawing 1114] yielded an IC50 above 30 µM.
Still for that read-out and setting: with `COc1cccc(N2CCN(C(=O)c3csc4c(O)nc(-c5ccccn5)nc34)CC2)c1` [drawing 1118] the figure was above 30 µM.
The same measure, in the same setting: then `COc1ccnc(-c2nc(O)c3c(Br)csc3n2)c1` [drawing 1133], with 2 to 10 µM.

The same test, now with this note: Homo sapiens, * = tested at 10 μM.
Regarding `Cc1sc2c(O)nc(-c3ccccn3)nc2c1C(=O)N1CCN(c2ccccc2)CC1C` (centres unmarked) [drawing 1270], the inhibition at 10 µM lay in the range of 1 to 25%.
`COC(=O)c1nc(-c2ccccn2)nc(O)c1O` [drawing 1307] gave an inhibition at 10 µM of 0%.
On the same count and under the same terms, with `Oc1nc(-c2ccccn2)nc2cc(-c3ccc(-c4ccccc4)cc3)sc12` [drawing 1319] the figure was 25 to 50%; with `COc1nc(-c2cn(C)cn2)nc2sc(-c3ccncc3)c(-c3ccccc3)c12` [drawing 1291], 1 to 25%.
Still for that read-out and setting: then `CC(C)(C)c1sc2c(O)nc(-c3ccccn3)nc2c1Br` [drawing 1314], with 1 to 25%; and `O=C(COCc1ccnc(O)c1)Nc1nc(-c2ccccn2)nc2sccc12` [drawing 1199], with 1 to 25%.
Still for that read-out and setting: then `CCOCCNc1nc(-c2nccn2C)nc2sc(-c3ccccc3)c(-c3ccccc3)c12` [drawing 1335], with 76 to 100%; and `COC(=O)c1cc2nc(-c3ccccn3)nc(O)c2s1` [drawing 1243], with 25 to 50%.
`Oc1nc(-c2ccccn2)nc2c(-c3cccc(C(F)(F)F)c3)csc12` [drawing 1212] had an inhibition at 10 µM of 76 to 100%.
For `Oc1nc(-c2ccccn2)nc2c(Br)c(-c3ccccc3)sc12` [drawing 1313], 10 µM produced 0% inhibition.
The same measure, in the same setting: with `CCC(C)c1csc2c(OC)nc(-c3ccccn3)nc12` (centres unmarked) [drawing 1245] the figure was 25 to 50%; with `COCCNc1nc(-c2nccn2C)nc2sc(-c3ccccc3)c(-c3ccccc3Cl)c12` [drawing 1340], 76 to 100%; with `Cn1ccnc1-c1nc(O)c2sc(-c3ccccc3)c(-c3ccccc3Cl)c2n1` [drawing 1355], 51 to 75%.
`Oc1nc(-c2ccccn2)nc2c(-c3cc(F)cc(F)c3)csc12` [drawing 1237] came in with an inhibition at 10 µM of 76 to 100%.
The same measure, in the same setting: then `Oc1nc(-c2ccccn2)nc2c(-c3ccccc3C(F)F)csc12` [drawing 1221], with 76 to 100%; and `O=C(CCn1ccnc1)Nc1nc(-c2ccccn2)nc2sccc12` [drawing 1226], with 1 to 25%.
`Cc1c(C(=O)O)sc2c(O)nc(-c3ccccn3)nc12` [drawing 1249]: the inhibition at 10 µM is 25 to 50%.
The same measure, in the same setting: with `Oc1nc(-c2ccccn2)nc2c(-c3cc(Cl)cc(Cl)c3)csc12` [drawing 1192] the figure was 1 to 25%.
In turn, `Cc1c(-c2csc3c(O)nc(-c4ccccn4)nc23)cnn1C` [drawing 1266] had an inhibition at 10 µM of 0%.
Same read-out and setting: with `Oc1nc(-c2ccccn2)nc2c(-c3ccc(OC4CCCCC4)cc3)csc12` [drawing 1224] the figure was 25 to 50%; with `Oc1nc(-c2ncccn2)nc2c(-c3cccc(C(F)(F)F)c3)csc12` [drawing 1368], 1 to 25%.
Same read-out and setting: with `CC(C)Oc1cnc(-c2ccccn2)nc1O` [drawing 1252] the figure was 1 to 25%; with `Oc1nc(-c2ccccn2)nc2cc(-c3cccc(Br)c3)sc12` [drawing 1324], 25 to 50%.
Turning to `COC1CCN(c2nc(-c3nccn3C)nc3sc(-c4ccccc4)c(-c4ccccc4)c23)C1` (centres unmarked) [drawing 1331], the inhibition at 10 µM lay in the range of 76 to 100%.
Still for that read-out and setting: with `Oc1nc(-c2ccccn2)nc2cc(-c3ccncc3)sc12` [drawing 1321] the figure was 0%; with `Nc1nc(O)c2sc(-c3cccc(C(=O)NCc4cccc(O)n4)c3)cc2n1` [drawing 1306], 0%; with `Oc1nc(-c2ccccn2)nc2c(CC3CCNC3)csc12` (centres unmarked) [drawing 1286], 1 to 25%.
Still for that read-out and setting: with `Cn1ccnc1-c1nc(O)c2scc(-c3cccc(C(F)(F)F)c3)c2n1` [drawing 1358] the figure was 25 to 50%; with `Oc1nc(-c2ccccn2)nc2c(-c3cc(CN4CCCC4)ccc3F)csc12` [drawing 1263], 0%; with `CC(C)c1nn(C)cc1-c1csc2c(O)nc(-c3ccccn3)nc12` [drawing 1262], 0%.
The same measure, in the same setting: then `COc1nccc(CCNC(=O)c2csc3nc(-c4ccccn4)nc(N4CCOCC4)c23)n1` [drawing 1234], with 25 to 50%.
In the case of `O=C(COCc1ccncc1)Nc1nc(-c2ccccn2)nc2sccc12` [drawing 1185], the inhibition at 10 µM fell in the range of 1 to 25%.
On the same count and under the same terms, with `Cn1cnc(-c2nc(O)c3scc(-c4cccc(OC(F)(F)F)c4)c3n2)c1` [drawing 1366] the figure was 1 to 25%; with `Cn1ccnc1-c1nc(O)c2sc(-c3ccccc3)c(-c3ccccc3)c2n1` [drawing 1348], 51 to 75%; with `Cc1sc2c(O)nc(-c3nccn3C)nc2c1-c1cccc(OC(F)(F)F)c1`, 25 to 50%.
`Cc1sc2c(O)nc(-c3nccn3C)nc2c1-c1ccccc1Cl` [drawing 1362] displayed an inhibition at 10 µM of 1 to 25%.
For the compound `Nc1nc(-c2ccccn2)nc2c(-c3ccccn3)csc12`, the inhibition at 10 µM is 76 to 100%.
On the same count and under the same terms, then `COc1nc(-c2ccccn2)nc2c1c(-c1ccccc1)nn2-c1ccccn1` [drawing 1300], with 25 to 50%; and `COc1nc(-c2ccccn2)nc2c(C3CCCCC3)csc12` [drawing 1251], with 1 to 25%; and `Cn1cnc(-c2nc(O)c3scc(-c4cccc(C(F)(F)F)c4)c3n2)c1` [drawing 1364], with 1 to 25%.

Staying with this test, now noted: Homo sapiens, at 30 μM.
For `O=C(Cc1ccc2c(c1)OCCO2)Nc1nnc(-c2ccccn2)[nH]1` [drawing 1026], the inhibition at 30 µM fell in the range of 1 to 25%.
In the case of `O=C(Nc1nnc(-c2ccccn2)[nH]1)C1CCCC1` [drawing 1008], the inhibition at 30 µM is 1 to 25%.
The same measure, in the same setting: with `Cc1nnc(C(Nc2nc(-c3ccccn3)nc3scc(-c4ccccc4)c23)c2ccccc2)n1C` (centres unmarked) [drawing 1084] the figure was 51 to 75%; with `O=S(=O)(CCc1ccccc1)N1CCCc2c(O)nc(-c3ccccn3)nc21` [drawing 1060], 25 to 50%.
In turn, `c1ccc(-c2csc3nc(-c4ccccn4)nc(N4CCN(CCN5CCCC5)CC4)c23)cc1` [drawing 1101] showed an inhibition at 30 µM of 76 to 100%.
On to `Oc1nc(-c2ccccn2)nc2scc(Br)c12` [drawing 1080], for which the inhibition at 30 µM is 76 to 100%.
Still for that read-out and setting: with `Cc1cnc(-c2ccccn2)nc1NC(=O)C(C)c1ccc(C#N)cc1` (centres unmarked) [drawing 1160] the figure was 1 to 25%; with `Nc1nc(O)c2scc(C(=O)N3CCc4ccccc4CC3)c2n1` [drawing 1063], 1 to 25%; with `CC(Oc1ccc(C(=O)Nc2nnc(-c3ccccn3)[nH]2)cn1)c1ccccc1` (centres unmarked) [drawing 1014], 25 to 50%.
Same read-out and setting: then `O=C(c1csc2c(O)nc(-c3ccccn3)nc12)N1CCN(c2ccc(O)c(Cl)c2)CC1` [drawing 1165], with 1 to 25%.
Same read-out and setting: then `COCCN(CCOC)c1nc(-c2ccccn2)nc2scc(C(=O)NCCc3ccc(OC)nc3)c12` [drawing 1157], with 1 to 25%; and `Cc1cnc(-c2ccccn2)nc1NC(=O)COCc1ccnc(O)c1` [drawing 1175], with 25 to 50%; and `O=C(Cc1c[nH]c2ccccc12)Nc1nnc(-c2ccccn2)[nH]1` [drawing 996], with 51 to 75%.
Regarding `Cc1sc2nc(-c3ccccn3)nc(NCCc3nccn3C)c2c1-c1ccccc1` [drawing 1085], the inhibition at 30 µM was in the range of 1 to 25%.
For the compound `COc1ccc(COCC(=O)N2CCCc3c(O)nc(-c4ccccn4)nc32)cc1` [drawing 1057], the inhibition at 30 µM was in the range of 1 to 25%.
On the same count and under the same terms, then `O=C1CCN(c2nc(-c3ccccn3)nc3scc(-c4ccccc4)c23)CC1` [drawing 1110], with 25 to 50%; and `c1ccc(-c2csc3nc(-c4ccccn4)nc(N4CCN(Cc5cccnc5)CC4)c23)cc1` [drawing 1087], with 1 to 25%; and `O=C(c1csc2c(O)nc(-c3ccccn3)nc12)N1CCN(c2ccncc2)CC1` [drawing 1069], with 25 to 50%.
Same read-out and setting: with `CC(Oc1ccccc1C#N)C(=O)Nc1nnc(-c2ccccn2)[nH]1` (centres unmarked) [drawing 1013] the figure was 51 to 75%; with `COCCCCNC(=O)c1csc2nc(-c3ccccn3)nc(N3CCN(C)CC3)c12` [drawing 1131], 1 to 25%; with `O=C(Nc1nnc(-c2ccccn2)[nH]1)C1CCN(C(=O)c2cccs2)CC1` [drawing 1027], 1 to 25%.
Still for that read-out and setting: then `Oc1nc(-c2ccccn2)nc2c(Br)csc12` [drawing 1064], with 76 to 100%.
In turn, `O=C(c1ccc(=O)[nH]n1)N1CCCc2c(O)nc(-c3ccccn3)nc21` [drawing 1059] yielded an inhibition at 30 µM of 1 to 25%.
In turn, `O=C(c1csc2c(O)nc(-c3ccccn3)nc12)N1CCC(N2CCOCC2)CC1` [drawing 1067] returned an inhibition at 30 µM of 1 to 25%.
On to `COc1ccnc(-c2nc(O)c3c(Cl)csc3n2)c1` [drawing 1162], for which the inhibition at 30 µM fell in the range of 1 to 25%.
The same measure, in the same setting: then `O=C(CCc1cnn(-c2ccccc2)c1)Nc1nnc(-c2ccccn2)[nH]1` [drawing 992], with 25 to 50%.
`COc1ccnc(-c2nc(O)c3ccsc3n2)c1` [drawing 1114] showed an inhibition at 30 µM of 51 to 75%.
Still for that read-out and setting: with `CC(c1ccccc1)N1CCN(C(=O)c2csc3c(O)nc(-c4ccccn4)nc23)CC1` (centres unmarked) [drawing 1166] the figure was 1 to 25%; with `COC(=O)c1csc2c(O)nc(-c3ccccn3)nc12` [drawing 1182], 25 to 50%; with `N#Cc1ccc(COCC(=O)Nc2nc(-c3ccccn3)nc3sccc23)cc1` [drawing 1161], 1 to 25%.
Same read-out and setting: with `COc1cccc(N2CCN(C(=O)c3csc4c(O)nc(-c5ccccn5)nc34)CC2)c1` [drawing 1118] the figure was 76 to 100%; with `COc1ccnc(-c2nc(O)c3c(Br)csc3n2)c1` [drawing 1133], 76 to 100%.
On the same count and under the same terms, with `CCOc1cc(S(=O)(=O)N(Cc2ccccc2)Cc2ccccc2)c(OCC)cc1C` [drawing 1049] the figure was 1 to 25%.
